The results in this text go back to US8367678B2, “Treatment for spinal muscular atrophy” (Kaohsiung Medical University, priority 2008, dated 2013).

What all share (assay type): cell-based, Human
The subject of series [1] is SMN2 exon 7 splicing in SMA lymphoid cell lines. The series is described as follows: SMN2 exon 7-containing versus exon 7-lacking transcripts by RT-PCR and quantitative densitometry. The procedure: Human SMA lymphoid cell lines were treated with several 5-(N-ethyl-N-isopropyl)-amiloride and then the relative levels of SMN2 exon 7-containing versus exon 7-lacking transcripts by RT-PCR and quantitative densitometry (Proc Natl Acad Sci USA 2001; 98:9808-9813) were measured. Human lymphoblast cell lines were established from SMA patients with homozygous SMN1 deletion in our laboratory by Epstein-Barr virus transformation as described in Proc Natl Acad Sci USA 2001; 98:9808-9813. The cells were grown in RPMI-1640 medium supplemented with 2 mM L-glutamine, 10% fetal bovine serum (FBS), 100 units/ml penicillin and 100 μg/ml streptomycin at 37° C. in a humidified atmosphere containing 5% CO2. The SMA lymphoid cell lines derived from 6 SMA patients included 2 type I, 2 type II and 2 type III. The cells were treated with various concentrations of EIPA for 24 hours to determine the dosage effect and exposed to 10 μM of EIPA and harvested at different time intervals (2-24 hours). […] Thus, EIPA promoted SMN2 exon 7 inclusion in a dose-dependent and time-related manner in SMA cells.

The subject of series [2] is SMN protein in SMA lymphoid cell lines. The series is described as follows: SMN protein level by Western blotting and quantitative densitometry. Particulars: 24 hours. The procedure: SMA lymphoid cell lines were treated with various concentrations of EIPA for 24 hours and then the level of SMN protein by Western blotting and quantitative densitometry were measured. Protein extract preparation and western blot analysis were performed essentially as described previously (Proc Natl Acad Sci USA 2001; 98:9808-9813). Briefly, proteins were resolved by SDS-PAGE and transferred to a polyvinyl difluoride membrane (Millipore). The membrane was blocked with a 5% skim milk solution and then exposed to the appropriate concentrations of primary antibodies for 1 hour at room temperature. The following primary antibodies were used: mouse monoclonal anti-SMN (BD Biosciences, 1:5,000), mouse monoclonal anti-SR 16H3 (Zymed, 1:500), mouse monoclonal anti-SRp20 (Zymed, 1:500), mouse monoclonal anti-hnRNP A 1 (Acris, 1:1000), mouse monoclonal anti-hnRNP A2/B1 (Acris, 1:1000), mouse monoclonal anti-Sam68 (Santa Cruz, 1:500), mouse monoclonal anti-SF2/ASF (Zymed, 1:2000), mouse monoclonal anti-Akt (Cell Signaling, 1:1000), mouse monoclonal anti-phosphorylated Akt (Cell Signaling, 1:1000), mouse monoclonal anti-α-tubulin (Abeam, 1:5000), and mouse monoclonal anti-β-tubulin (Santa Cruz, 1:2000). After washing with TBST (0.05% Tween 20 in TBS), the membrane was incubated for 1 hour with a secondary antibody at a 1:2500 dilution and then detected by ECL chemiluminescence kit (Amersham). Intensity of the signals was measured using LabWorks software (UVP). Referring to FIG. 2, in the cytoplasm, the SMN protein level of EIPA-treated SMA cell was 1.8-, 1.4-, and 2.6-fold higher than untreated cell lines. In the nucleus, the SMN protein level at 2, 10 and 50 μM EIPA was 2.2-, 2.0-, and 3.3-fold higher than untreated cell lines.
On the technique in general: A western blot detects proteins with antibodies after separation by electrophoresis.

Series [3] relates to SRp20 in SMA lymphoid cell lines. The series is described as follows: Levels of SR and hnRNP proteins by Western blotting and quantitative densitometry. The conditions noted are these: 10 μM EIPA (FIG. 3). The method, then: SMA lymphoid cell lines were treated with various concentrations of EIPA for 24 hours and then the level of SMN protein by Western blotting and quantitative densitometry were measured. Protein extract preparation and western blot analysis were performed essentially as described previously (Proc Natl Acad Sci USA 2001; 98:9808-9813). Briefly, proteins were resolved by SDS-PAGE and transferred to a polyvinyl difluoride membrane (Millipore). The membrane was blocked with a 5% skim milk solution and then exposed to the appropriate concentrations of primary antibodies for 1 hour at room temperature. […] After washing with TBST (0.05% Tween 20 in TBS), the membrane was incubated for 1 hour with a secondary antibody at a 1:2500 dilution and then detected by ECL chemiluminescence kit (Amersham). Intensity of the signals was measured using LabWorks software (UVP). […]
SMA lymphoid cell lines were treated with EIPA and then the change in the levels of several SR and hnRNP proteins by Western blotting and quantitative densitometry was examined. The protein levels in cytoplasmic and nuclear fractions were also measured separately in order to gain information about subcellular distribution. […]

In series [4] the test system is SMA lymphoid cells. The series is described as follows: Intracellular pH by cytofluorometric SNARF-1 measurement. Particulars: 4 hours, untreated control about 7.40. The method, then:
Thus, the intracellular pH lowering and cytotoxic effects of EIPA on SMA lymphoid cells were determined. The procedures of cytofluorometric measurement were modified from a published method (J Cell Physiol 1998; 177:109-122). Briefly, three million SMA lymphoid cells were treated with 0, 2, or 10 μM of EIPA in 3 ml of growth medium for 4 hours in a 37° C. CO2 incubator, washed in PBS and then incubated in PBS containing 5 μM of carboxy SNARF-1 AM, acetate (Molecular Probes) for 30 minutes at 37° C., also in the absence or presence of 2 or 10 μM EIPA. The SNARF-1 loaded cells collected by 200×g 10 minutes centrifugation were divided into 7 aliquots, 5 for the calibration standard curves and 2 for sample reading. […] The aliquots for sample reading were suspended in hepes-buffered pH 7.1 and pH 7.4 K^+-BSS, without or with EIPA addition, but in the absence of nigericin. After standing in the darkness at room temperature for 20 minutes, the SNARF-1 fluorescence measurement was performed in a cytofluorometer (FACSAria BD Biosciences) by excitation at 488 nm and fluorescent emissions at 580 (FL-2) and 640 nm (FL-3). The cytofluorometric data was analyzed by using FACSDiVa and CellQuest software to gate the major viable cell populations for producing a standard curve of the 640/580 nm fluorescence ratios (y-axis) versus the high-K BSS buffer pHs (x-axis) of nigericin-treated cells. […]

The subject of series [5] is SMA lymphoid cells. The series is described as follows: Cell viability by trypan blue dye exclusion. Particulars: 24 hours. The method, then: (§1) 2.5×10^5 lymphoid cells/0.5-ml/well in a 12-well dish were exposed to 0, 2, 5, 10, 20 or 50 μM of EIPA. Viability was determined by trypan blue dye exclusion at 24 hours. To determine the cell growth effect of EIPA, 2.5×10^5 lymphoid cells/0.5-ml/well in a 12-well dish were exposed to 0, 2, 5, 10, 20 or 50 μM of EIPA. 0.5-ml of fresh medium (without or with the same EIPA addition) was added at 72 hours and cell counts made at 120 hours. Referring to FIG. 6A, the cell viability remained at above 90% after treatment of 20 μM (or lower) EIPA for 24 hours, but was down to 60% in 50 WA EIPA medium. Additionally, Referring to FIG. 6B, from a dose response curve of 120 hours in vitro cultures, it was estimated that 8 μM of EIPA cause 50% growth inhibition of SMA lymphoid cells.

The test system of series [6] is SMA lymphoid cells. As to the kind of experiment: Cell growth assay (cell counts at 120 hours). The conditions noted are these: 120 hours in vitro cultures, from dose response curve; read-out: concentration causing 50% growth inhibition of SMA lymphoid cells. The procedure: as §1

Molecules are shown by their SMILES.

A word on the cell viability: it is a per cent measure of how many cells are alive, often set against a control. Read a low cell viability as a greater loss of cells. For `CCN(c1nc(N)c(C(=O)N=C(N)N)nc1Cl)C(C)C` [EIPA, 5-(N-ethyl-N-isopropyl)-amiloride], the “ratio of SMN2 exon 7-containing to exon 7-lacking transcripts” value in series [1] (2 μM EIPA, 24 hours, SMA lymphoid cell lines) is “increased significantly”; in series [1] (10 μM EIPA, 24 hours, SMA lymphoid cell lines) it was “increased significantly”; in series [1] (10 μM EIPA, at 4 hours after the treatment), “significantly increased”; in series [1] (50 μM EIPA, 24 hours, SMA lymphoid cell lines), “increased significantly”. The “SMN protein level in the cytoplasm versus untreated cell lines” value in series [2] (first listed concentration (2 μM EIPA)) was 1.8 fold; in series [2] (second listed concentration (10 μM EIPA)), 1.4 fold; in series [2] (third listed concentration (50 μM EIPA)), 2.6 fold. Also, the entries for the “SMN protein level in the nucleus versus untreated cell lines” value in series [2] (2 μM EIPA), in series [2] (10 μM EIPA) and in series [2] (50 μM EIPA) were 2.2 fold, 2.0 fold and 3.3 fold, respectively. Further, the “increase of the level of SRp20 in the nucleus” value in series [3] is on record as “approximately 4 fold”. Also, the “intracellular pH (pHi)” value in series [4] (2 μM EIPA) is recorded as 7.15±0.10; in series [4] (10 μM EIPA) it was 7.03±0.15. For the same compound, the cell viability entry in series [5] (20 μM (or lower) EIPA) is “above 90%”; in series [5] (50 μM EIPA medium), 60%. In addition, the IC50 in series [6] is about 8 µM.
